This note sets out measurements from article PMC9879403, “Oncolytic strategy using new bifunctional HDACs/BRD4 inhibitors against virus-associated lymphomas” (PLOS Pathogens, 2023).

Read-outs that look alike come from different tables or passages of the source.

The test system of one data set is BRD4. Briefly: BRD4 signaling by Western blot (c-Myc expression). The data set is classed as cell-based. The conditions noted are these: BCBL-1 cells, 48 h, Western blot. On the technique in general: Immunoblotting shows a protein as a band on a membrane.
The next data set relates to BCP-1. Briefly: WST-1 cytotoxicity assay, BCP-1 (KSHV+ PEL). The class given is cell-based. The conditions noted are these: BCP-1, 72 h. The text has this:
(§1) Fig 2 Identification of newly synthesized dual inhibitors with anti-PEL activities. (A) The binding mode of (+)-JQ1 with BRD4^BD1 (PDB: 3MXF). BRD4^BD1 is shown as hot pink cartoon with gray surface. Asn140 in BRD4^BD1 is shown as sticks and colored in following pattern: atom C hot pink, atom N dark blue, and atom O yellow. (+)-JQ1 is shown as sticks and colored in following patten: atom C hot pink, atom N dark blue, atom O yellow, atom S golden, and atom Cl green. The solvent exposed region (SEG) of (+)-JQ1 are indicated with white arrow. (B) The binding modes of SAHA and entinostat with HDAC2 (PDB: 3MAX). HDAC2 is shown as blue cartoon with gray surface. Asp181 and His183 in HDAC2 are shown as sticks and colored in following pattern: atom C blue, atom N dark blue, and atom O yellow. The catalytic zinc ion in the active site of HDAC2 is shown as black sphere. SAHA is shown as sticks and colored in following pattern: atom C green, atom N dark blue, and atom O yellow. Entinostat is shown as sticks and colored in following pattern: atom C hot pink, atom N dark blue, and atom O yellow. The SEG of SAHA or entinostat is indicated with white arrow. Hydrogen bonds (H-bonds) are presented by red dash lines. (C) The HDACs/BRD4 dual inhibitors 002-011 were designed by fusing the key pharmacophores of (+)-JQ1 (pink) and HDAC inhibitors (blue), SAHA or entinostat, via various chemical linkers (green). (D) Anti-PEL activities of the new compounds. Five KSHV positive and two KSHV negative lymphoma cell lines were treated with indicated concentrations of these compounds for 72 h. Then the cytotoxicity was determined using the WST-1 assay. (+)-JQ1, SAHA and entinostat were used for the comparisons as single inhibitors. The CC50 for each compound was calculated using GraphPad Prism 5.0 software. Error bars represent S.D. for 3 independent experiments.
(§2) Fig 4 Identification of anti-PEL activities for compound 009 stereoisomers. (A) The chemical structures of anti-HDACs/BRD4 bifunctional molecules 009P1 and 009P2, as well as anti-HDACs or anti-BRD4 mono-functional molecules 009N1, 009N2, 009N3, and 009N4. (B-C) Four KSHV+ PEL cell lines were treated with indicated concentrations of 009P1, 009P2 or 009N1-N4 for 72 h, then the cytotoxicity was determined using the WST-1 assay. (D-I) BCBL-1 cells were treated with these compounds at the respective 2× CC50 for 24 h, then cell cycle (D-F) and apoptosis (G-I) were measured by flow cytometry analysis. Error bars represent S.D. for 3 independent experiments, ** = p<0.01 (vs vehicle control).
(§3) The cell viability following treatment with compounds was assessed by the WST-1 assay (Roche, Indianapolis, Indiana, USA) according to the manufacturer’s protocol as described previously. The absorbance signal was measured using a microplate reader (Biotek Synergy 2). The 50% cytotoxic concentration (CC50) for each compound was calculated from these dose-response curves using the software GraphPad Prism v5.0. Data were normalized as the fold change compared to the DMSO control.
In general terms: Formazan colour is commonly taken as a measure of viable cells.

For another data set, the system named is BC-1. Briefly: WST-1 cytotoxicity assay, BC-1 (KSHV+ PEL). The data set is classed as cell-based. The conditions noted are these: Homo sapiens, BC1, 72 h.
Excerpt: as §1, §2, §3

The next data set concerns JSC-1. Briefly: WST-1 cytotoxicity assay, JSC-1 (KSHV+ PEL). The data set is classed as cell-based. The conditions noted are these: 72 h.
Excerpt: as §1, §2, §3

In the next data set the test system is BCBL-1. Briefly: WST-1 cytotoxicity assay, BCBL-1 (KSHV+ PEL). The class given is cell-based. The conditions noted are these: BCBL1, 72 h.
Excerpt: as §1, §2, §3

The subject of another data set is HDACs. Briefly: HDACs signaling by Western blot (H3K9Ac, H4K9Ac, Acetyl-tubulin). The data set is classed as cell-based. The conditions noted are these: BCBL-1 cells, 48 h, Western blot.
For the next data set, the system named is HUVEC. Briefly: WST-1 cytotoxicity on primary cells HUVEC. The data set is classed as cell-based, human. Here is the method:
as §3
Supplementary file ppat.1011089.s006.tif: S5 Fig Cytotoxicity of tested compounds on HUVEC. The primary cells HUVEC were treated with indicated concentrations of compounds for 72 h, then cell viability was assessed using the WST-1 assay. The CC50 for each compound was calculated from the dose-response curves using Graphpad Prism 5.0 software. Data was normalized as the fold change compared to the DMSO control. (TIF) Click here for additional data file.

The nature of data set [1]: WST-1 cytotoxicity assay, BL-41 (KSHV negative lymphoma). The class given is cell-based. The conditions noted are these: human.
Excerpt: as §1, §3

The subject of a further data set is BJAB.219. Briefly: WST-1 cytotoxicity assay, BJAB.219 (KSHV-infected lymphoma). The data set is classed as cell-based. The conditions noted are these: 50% cytotoxic concentration, 72 h, WST-1; read-out: KSHV-infected lymphomas CC50, BJAB.219.
Excerpt: as §1
BCBL-1 and iSLK.219 cells were kindly provided by Dr. Pinghui Feng (University of Southern California). BL-41, BJAB, BCP-1, BC-1, BC-3, JSC-1, HUVEC cells were purchased from American Type Culture Collection (ATCC), and cultured as recommended by the manufacturer. For making BJAB.219 cells, BJAB cells were infected with rKSHV.219 stock by spinoculation as previously reported by centrifugation at 1500×g for 60 min [31]. Then, puromycin (10 μg/ml) was added into the medium at 72 h post-infection and the medium containing puromycin was replaced twice a week. After 6-week high concentration of puromycin selection, BJAB.219 cells were then cultured in the medium with 0.5 μg/ml puromycin.
The cell viability following treatment with compounds was assessed by the WST-1 assay (Roche, Indianapolis, Indiana, USA) according to the manufacturer’s protocol as described previously. The absorbance signal was measured using a microplate reader (Biotek Synergy 2). […]

The nature of data set [2]: WST-1 cytotoxicity assay, BJAB (KSHV negative lymphoma). The class given is cell-based. The conditions noted are these: human.
Excerpt: as §1, §3

One may read the CC50 as the concentration that lowers cell viability or growth by half. As to `COC(=O)c1ccc([C@H](C)OC(=O)C[C@@H]2N=C(c3ccc(Cl)cc3)c3c(sc(C)c3C)-n3c(C)nnc32)cc1` [009N4, methyl 4-((S)-1-(2-((S)-4-(4-chlorophenyl)-2,3,9-trimethyl-6H-thieno[3,2-f][1,2,4]triazolo[4,3-a][1,4]diazepin-6-yl)acetoxy)ethyl)benzoate], the c-Myc expression entry in the data set on BRD4 was “drastically downregulated”. Also, the CC50 in the data set with BCP-1 (read-out: CC50, BCP-1) stood at 530 nM; in the data set with BC-1 (read-out: CC50, BC-1) it was 340 nM; in the data set with JSC-1 (read-out: CC50, JSC-1), 2320 nM; in the data set with BCBL-1 (read-out: CC50, BCBL-1) it was 180 nM.

For `Cc1sc2c(c1C)C(c1ccc(Cl)cc1)=N[C@H](CC(=O)O[C@H](C)c1ccc(C(=O)Nc3ccccc3N)cc1)c1nnc(C)n1-2` [009N1, (R)-1-(4-((2-aminophenyl)carbamoyl)phenyl)ethyl 2-((R)-4-(4-chlorophenyl)-2,3,9-trimethyl-6H-thieno[3,2-f][1,2,4]triazolo[4,3-a][1,4]diazepin-6-yl)acetate], the c-Myc expression result with BRD4 is on record as “subtle effect”. For the same molecule, the “H3K9Ac, H4K9Ac and Acetyl-tubulin protein levels” value with HDACs is “upregulated”. Besides, the CC50 is more than 10000 nM in the data set on BCP-1 (read-out: CC50, BCP-1); more than 10000 nM with BC-1 (read-out: CC50, BC-1); more than 10000 nM in the data set on JSC-1 (read-out: CC50, JSC-1); 7560 nM in the data set on BCBL-1 (read-out: CC50, BCBL-1).

In the case of `Cc1sc2c(c1C)C(c1ccc(Cl)cc1)=N[C@H](CC(=O)O[C@@H](C)c1ccc(C(=O)Nc3ccccc3N)cc1)c1nnc(C)n1-2` [009N2, (S)-1-(4-((2-aminophenyl)carbamoyl)phenyl)ethyl 2-((R)-4-(4-chlorophenyl)-2,3,9-trimethyl-6H-thieno[3,2-f][1,2,4]triazolo[4,3-a][1,4]diazepin-6-yl)acetate], the c-Myc expression result in the data set on BRD4 is “subtle effect”. Besides, in the data set with HDACs, the “H3K9Ac, H4K9Ac and Acetyl-tubulin protein levels” value is recorded as “upregulated”. The CC50 in the data set on BCP-1 (read-out: CC50, BCP-1) was 7680 nM; in the data set on BC-1 (read-out: CC50, BC-1) it was 3120 nM; with JSC-1 (read-out: CC50, JSC-1) it was more than 10000 nM; in the data set on BCBL-1 (read-out: CC50, BCBL-1) it was 1070 nM.

As for `Nc1ccccc1NC(=O)c1ccc(CNC(=O)OCc2cccnc2)cc1` [Entinostat, reference compound], the “Cytotoxicity in primary cells HUVEC” value with HUVEC was “moderate cytotoxicity”. In addition, the CC50 with BCP-1 (read-out: KSHV-infected lymphomas CC50, BCP-1) is 200 nM; in the data set with BC-1 (read-out: KSHV-infected lymphomas CC50, BC-1) it was 300 nM; in the data set with JSC-1 (read-out: KSHV-infected lymphomas CC50, JSC-1), 150 nM; in the data set on BCBL-1 (read-out: KSHV-infected lymphomas CC50, BCBL-1) it was 170 nM; with BJAB.219, 180 nM. Further, the CC50 at 72 h stood at 570 nM in data set [1] and 420 nM in data set [2].

Regarding `COC(=O)c1ccc([C@@H](C)OC(=O)C[C@@H]2N=C(c3ccc(Cl)cc3)c3c(sc(C)c3C)-n3c(C)nnc32)cc1` [009N3, methyl 4-((R)-1-(2-((S)-4-(4-chlorophenyl)-2,3,9-trimethyl-6H-thieno[3,2-f][1,2,4]triazolo[4,3-a][1,4]diazepin-6-yl)acetoxy)ethyl)benzoate], the c-Myc expression result with BRD4 is reported as “drastically downregulated”. Moreover, the CC50 is 2430 nM with BCP-1 (read-out: CC50, BCP-1); 1470 nM in the data set with BC-1 (read-out: CC50, BC-1); 9840 nM with JSC-1 (read-out: CC50, JSC-1); 670 nM in the data set on BCBL-1 (read-out: CC50, BCBL-1).
